From patent publication US7504513B2, “Thiazolyl-benzimidazoles” (Hoffman-La Roche Inc., priority 2006, dated 2009)

Biological target: T1, GST-Plk1 (Homo sapiens, UniProt P53350)
T1 construct: Full-length, active GST-Plk1 was purified from Sf9 insect cells; made in house; host or cells: Sf9 insect cells
Assay: Biochemical Characterization Assay: HTRF kinase assay, GST-Plk1 phosphorylation of GST-p53
Conditions: full-length active GST-Plk1, GST-p53 substrate, ATP, 37° C. for 35 minutes, HTRF signal
Description: Full-length, active GST-Plk1 was purified from Sf9 insect cells, and full-length GST-p53 was purified in E. coli. Anti-phospho p53 antibody was purchased from Cell Signaling Technology. Europium-conjugated anti-rabbit antibody was purchased from PerkinElmer Life and Analytical Sciences. APC-conjugated anti-GST antibody was purchased from Prozyme.
To two microliters of compound (0.6 nM-4 mM) in DMSO or plain DMSO for control wells, 38 microliters of 20 mM HEPES pH 7, 50 mM NaCl, 10 mM MgCl2, 0.5 mM TCEP, 0.1 mM sodium orthovanadate, 0.1 mg/ml BSA, and 0.05% Triton X-100 (Kinase Assay Buffer) were added. Eight microliters of the compound solution were added to a 384-well black microtiter plate, followed by six microliters of GST-p53 (17 ug/ml) and ATP (333 uM) in Kinase Assay Buffer. Six microliters of GST-Plk1 (3 ug/ml) in Kinase Assay Buffer were then added and the solution incubated at 37° C. for 35 minutes. Six microliters of solution containing 43 mM EDTA to stop the reaction and a 1:600 dilution of anti-phospho-p53 antibody in 20 mM HEPES pH 7, 50 mM NaCl, and 0.5 mg/ml BSA (Antibody Binding Buffer) were added and the solution incubated at 37° C. for 30 minutes. Six microliters of solution containing 9 nM europium-conjugated anti-rabbit antibody and 120 nM APC-conjugated anti-GST antibody in Antibody Binding Buffer were then added and the mixture incubated at room temperature for 1.5 hours. The HTRF signal was read on the Envision reader (PerkinElmer Life and Analytical Sciences).

T1 sequence (P53350 whole entry): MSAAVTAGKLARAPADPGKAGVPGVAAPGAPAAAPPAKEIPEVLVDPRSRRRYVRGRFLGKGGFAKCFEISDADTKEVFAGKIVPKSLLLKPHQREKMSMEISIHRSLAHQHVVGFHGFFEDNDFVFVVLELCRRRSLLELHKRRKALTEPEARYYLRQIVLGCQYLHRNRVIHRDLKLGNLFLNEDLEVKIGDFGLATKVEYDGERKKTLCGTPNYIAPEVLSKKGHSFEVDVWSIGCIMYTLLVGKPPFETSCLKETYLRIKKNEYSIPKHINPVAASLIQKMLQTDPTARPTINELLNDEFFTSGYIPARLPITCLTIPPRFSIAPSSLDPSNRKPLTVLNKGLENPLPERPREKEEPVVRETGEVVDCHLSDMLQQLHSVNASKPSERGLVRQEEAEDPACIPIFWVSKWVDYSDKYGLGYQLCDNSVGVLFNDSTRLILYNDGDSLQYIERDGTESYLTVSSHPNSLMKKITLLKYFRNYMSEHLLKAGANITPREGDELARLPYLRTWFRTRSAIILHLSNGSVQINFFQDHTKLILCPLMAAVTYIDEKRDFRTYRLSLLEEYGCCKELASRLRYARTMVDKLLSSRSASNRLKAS

IC50 [nM] | Structure (SMILES)
354 | COc1cc2ncn(-c3nc(-c4ccc(C(F)(F)F)c(Cl)c4)c(C(=O)O)s3)c2cc1OC [Example 45, 4-(3-Chloro-4-trifluoromethyl-phenyl)-2-(5,6-dimethoxy-benzoimidazol-1-yl)-thiazole-5-carboxylic acid]
542 | COc1cc2ncn(-c3nc(-c4ccc(F)c(F)c4)c(C(=O)O)s3)c2cc1OC [Example 47, 4-(3,4-Difluoro-phenyl)-2-(5,6-dimethoxy-benzoimidazol-1-yl)-thiazole-5-carboxylic acid]
819 | COCCOc1cc2ncn(-c3nc(-c4ccccc4)c(C(=O)O)s3)c2cc1OCCOC [Example 48, 2-[5,6-Bis-(2-methoxy-ethoxy)-benzoimidazol-1-yl]-4-phenyl-thiazole-5-carboxylic acid]
2340 | COc1cc2ncn(-c3nc(-c4ccc5c(c4)OCCO5)c(C(=O)O)s3)c2cc1OC [Example 50, 4-(2,3-Dihydro-benzo[1,4]dioxin-6-yl)-2-(5,6-dimethoxy-benzoimidazol-1-yl)-thiazole-5-carboxylic acid]
18 | COc1cc2ncn(-c3nc(-c4cccc(Cl)c4)c(C(=O)NNC(=O)c4cccs4)s3)c2cc1OC [Example 53, Thiophene-2-carboxylic acid N′-[4-(3-chloro-phenyl)-2-(5,6-dimethoxybenzoimidazol-1-yl)-thiazole-5-carbonyl]-hydrazide]
47 | COc1cc2ncn(-c3nc(-c4cccc(Cl)c4)c(C(=O)Nc4ccncn4)s3)c2cc1OC [Example 54, 4-(3-Chloro-phenyl)-2-(5,6-dimethoxy-benzoimidazol-1-yl)-thiazole-5-carboxylic acid pyrimidin-4-ylamide]
344 | COc1cc2ncn(-c3nc(-c4cccc(Cl)c4)c(C(=O)Nn4cnnc4)s3)c2cc1OC [Example 57, 4-(3-Chloro-phenyl)-2-(5,6-dimethoxy-benzoimidazol-1-yl)-thiazole-5-carboxylic acid [1,2,4]triazol-4-ylamide]
4680 | O=C(O)c1sc(-n2cnc3cccc(O)c32)nc1-c1ccccc1 [Example 61, 2-(7-Hydroxy-benzoimidazol-1-yl)-4-phenyl-thiazole-5-carboxylic acid]

The next lines start with the compound.

Structure (SMILES) | IC50 [nM]
COc1cc2ncn(-c3nc(-c4ccc5c(ccn5C)c4)c(C(=O)O)s3)c2cc1OC [Example 46, 2-(5,6-Dimethoxy-benzoimidazol-1-yl)-4-(1-methyl-1H-indol-5-yl)-thiazole-5-carboxylic acid] | 368
COc1cc2ncn(-c3nc(-c4cccc(CO)c4)c(C(=O)O)s3)c2cc1OC [Example 49, 2-(5,6-Dimethoxy-benzoimidazol-1-yl)-4-(3-hydroxymethyl-phenyl)-thiazole-5-carboxylic acid] | 1080
C=Cc1ccc(-c2nc(-n3cnc4cc(OC)c(OC)cc43)sc2C(=O)O)cc1 [Example 51, 2-(5,6-Dimethoxy-benzoimidazol-1-yl)-4-(4-vinyl-phenyl)-thiazole-5-carboxylic acid] | 2670
COc1cc2ncn(-c3nc(-c4cccc(C(=O)N(C)C)c4)c(C(=O)O)s3)c2cc1OC [Example 52, 2-(5,6-Dimethoxy-benzoimidazol-1-yl)-4-(3-dimethylcarbamoyl-phenyl)-thiazole-5-carboxylic acid] | 8870
COc1cccc(NC(=O)c2sc(-n3cnc4cc(OC)c(OC)cc43)nc2-c2cccc(Cl)c2)c1 [Example 55, 4-(3-Chloro-phenyl)-2-(5,6-dimethoxy-benzoimidazol-1-yl)-thiazole-5-carboxylic acid (3-methoxy-phenyl)-amide] | 250
COc1cc2ncn(-c3nc(-c4cccc(Cl)c4)c(C(=O)Nc4nccs4)s3)c2cc1OC [Example 56, 4-(3-Chloro-phenyl)-2-(5,6-dimethoxy-benzoimidazol-1-yl)-thiazole-5-carboxylic acid thiazol-2-ylamide] | 252
COc1cc2ncn(-c3nc(-c4cccc(Cl)c4)c(C(=O)NNC(=O)c4cccc(C)c4)s3)c2cc1OC [Example 58, 3-Methyl-benzoic acid N′-[4-(3-chloro-phenyl)-2-(5,6-dimethoxy-benzoimidazol-1-yl)-thiazole-5-carbonyl]-hydrazide] | 586
COc1cc2ncn(-c3nc(-c4cccc(Cl)c4)c(C(=O)Nc4cc[nH]c(=O)n4)s3)c2cc1OC [Example 60, 4-(3-Chloro-phenyl)-2-(5,6-dimethoxy-benzoimidazol-1-yl)-thiazole-5-carboxylic acid (2-oxo-1,2-dihydro-pyrimidin-4-yl)-amide] | 4430
COc1ccc2c(c1)ncn2-c1nc(-c2ccccc2)c(C(=O)O)s1 [Example 62, 2-(5-Methoxy-benzoimidazol-1-yl)-4-phe-nyl-thiazole-5-car-boxylic acid] | 261
COc1cc2ncn(-c3nc(-c4ccnc(Cl)c4)c(C(=O)O)s3)c2cc1OC [Example 64, 4-(2-Chloro-pyridin-4-yl)-2-(5,6-dimethoxy-benzoimidazol-1-yl)-thiazole-5-carboxylic acid] | 75
